Each block holds one compound with its values, some of them ahead of it.
How the values were obtained:
[1] = target: T1, B7-1/CD28 (Homo sapiens, UniProt P33681); experiment: CD28/B7-1 ELISA (B7-1/CD28 binding inhibition); conditions: CD28-Fc coated wells; B7-1-Fc-biotin/streptavidin-alkaline phosphatase detection complex; 1% DMSO
T1 sequence (P33681 35-242 limits assumed): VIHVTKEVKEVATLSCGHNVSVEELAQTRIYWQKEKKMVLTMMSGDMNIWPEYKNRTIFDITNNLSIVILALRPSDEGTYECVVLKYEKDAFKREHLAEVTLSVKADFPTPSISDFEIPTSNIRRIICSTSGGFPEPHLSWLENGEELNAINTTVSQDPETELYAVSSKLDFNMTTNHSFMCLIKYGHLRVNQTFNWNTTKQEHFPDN
Procedure: Evaluation of B7-1/CD28 Binding Inhibition for Test Compounds
Wells are coated with 300 ng CD28-Fc in carbonate buffer (pH 9.4) overnight at 4° C., blocked with 1% bovine serum albumin in tris-buffered saline (TBS) for 1 h at 22° C. and washed 3 times in TBS prior to assay. The detection complex is formed as follows: B7-1-Fc-biotin, prepared using NHS-LC-biotin (Pierce #21335) according to the manufacturers instructions (4.1 moles biotinimole Fc), is added at 0.8 ug/ml to streptavidin-alkaline phosphatase (Caltag Sa1008) at 1:1000 in TBS. A solution of test compound in dimethylsulfoxide (1% final) are added to this complex and incubated 30 min at 22° C. Detection complex (+/−inhibitors) is then added to the CD28 coated wells for 25 min at 22° C., washed 5 times with TBS, developed with the colorimetric substrate pNPP (Pierce #34045) in diethanolamine/MgCl2 buffer (pH 9.5) and read at 405 nm. The inhibition constant (IC50) is calculated by subtracting background binding and comparing to uninhibited (DMSO alone) controls. The inhibition constant represents the concentration of test compound required to achieve 50% inhibition.

melting point: 212 to 215 °C
IC50 [1]: 0.022 µM
Structure (SMILES): Cn1ncc2c3[nH]n(-c4ccc(Cl)c(C(=O)NCc5ccc(O)c(O)c5)c4)c(=O)c3c(-c3cccc(C(F)(F)F)c3)nc21 [Example 21]

melting point: 214 to 218 °C
IC50 [1]: 0.044 µM
Structure (SMILES): Cn1ncc2c3[nH]n(-c4ccc(Cl)c(C(=O)N5CCC[C@@H]5C(=O)O)c4)c(=O)c3c(-c3cccc(C(F)(F)F)c3)nc21 [Example 22, 1-{2-chloro-5-[6-methyl-3-oxo-4-[3-(trifluoromethyl)pheny]-3,6-dihydrodipyrazolo[3,4-b:3′,4′-d]pyridin-2(1H)-yl]benzoyl}-D-proline]

melting point: 189 to 192 °C
IC50 [1]: 0.079 µM
Structure (SMILES): Cn1ncc2c3[nH]n(-c4ccc(C(=O)NCc5ccccc5)cc4)c(=O)c3c(-c3cccc(C(F)(F)F)c3)nc21 [Example 32]

melting point: 183 °C (dec.)
IC50 [1]: 0.057 µM
Structure (SMILES): Cn1ncc2c3[nH]n(-c4cccc(C(=O)NCc5ccc(N)cc5)c4)c(=O)c3c(-c3cccc(C(F)(F)F)c3)nc21 [Example 16]

melting point: 186 to 189 °C
IC50 [1]: 0.023 µM
Structure (SMILES): Cn1ncc2c3[nH]n(-c4ccc(C(=O)Nc5ccc(CCO)cc5)cc4)c(=O)c3c(-c3cccc(C(F)(F)F)c3)nc21 [Example 34]

The next lines start with the compound.

Structure (SMILES): Cn1ncc2c3[nH]n(-c4ccc(C(=O)NCCCCO)cc4)c(=O)c3c(-c3cccc(C(F)(F)F)c3)nc21 [Example 37]
melting point: 280 °C (dec.)
IC50 [1]: 0.088 µM

Structure (SMILES): CC(O)c1cccc(NC(=O)c2ccc(-n3[nH]c4c(c(-c5cccc(C(F)(F)F)c5)nc5c4cnn5C)c3=O)cc2)c1 (stereo not shown) [Example 25]
melting point: 251 to 254 °C
IC50 [1]: 0.003 µM

Structure (SMILES): COC(=O)c1cccc(NC(=O)c2ccc(-n3[nH]c4c(c(-c5cccc(C(F)(F)F)c5)nc5c4cnn5C)c3=O)cc2)c1 [Example 42]
melting point: 220 to 222 °C
IC50 [1]: 0.094 µM

Structure (SMILES): Cn1ncc2c3[nH]n(-c4ccc(C(=O)NCCCCCN)cc4)c(=O)c3c(-c3cccc(C(F)(F)F)c3)nc21 [Example 39]
melting point: 234.5 to 236 °C
IC50 [1]: 0.14 µM

Structure (SMILES): Cn1ncc2c3[nH]n(-c4ccc(C(=O)N5CCOCC5)c(F)c4)c(=O)c3c(-c3cccc(C(F)(F)F)c3)nc21 [Example 30]
melting point: 176 to 179 °C
IC50 [1]: 0.31 µM

Structure (SMILES): Cn1ncc2c3[nH]n(-c4ccc(C(=O)N5CCOCC5)cc4)c(=O)c3c(-c3cccc(C(F)(F)F)c3)nc21 [Example 33, 6-methyl-2-[4-(4-morpholinylcarbonyl)phenyl]-4-[3-(trifluoromethyl)phenyl]-1,6-dihydrodipyrazolo[3,4-b:3,4-d]pyridin-3(2H)-one]
melting point: 287 to 290 °C
IC50 [1]: 0.013 µM
